Reference: ChEMBL document CHEMBL5726146, “Sulfone amide linked benzothiazole inhibitors of endothelial lipase” (2019)

Target: T1, Endothelial lipase (Homo sapiens, UniProt Q9Y5X9)
T1 sequence (Q9Y5X9 whole entry): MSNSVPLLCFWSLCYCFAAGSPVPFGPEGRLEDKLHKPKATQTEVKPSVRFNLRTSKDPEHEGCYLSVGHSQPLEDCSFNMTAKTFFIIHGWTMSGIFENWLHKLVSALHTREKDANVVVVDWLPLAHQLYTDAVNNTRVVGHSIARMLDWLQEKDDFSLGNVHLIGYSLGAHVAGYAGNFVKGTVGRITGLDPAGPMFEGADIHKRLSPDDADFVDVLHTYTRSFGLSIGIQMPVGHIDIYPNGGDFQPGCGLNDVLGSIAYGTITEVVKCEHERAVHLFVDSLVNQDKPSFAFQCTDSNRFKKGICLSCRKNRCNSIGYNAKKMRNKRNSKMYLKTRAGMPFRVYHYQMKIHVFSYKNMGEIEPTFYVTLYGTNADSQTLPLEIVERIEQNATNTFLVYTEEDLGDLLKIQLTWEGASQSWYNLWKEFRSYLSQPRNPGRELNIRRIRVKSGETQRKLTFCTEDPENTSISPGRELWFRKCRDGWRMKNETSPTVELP
Assay: Biological Activity: Endothelial lipase (EL) and hepatic lipase (HL) activities were measured using a fluorescent substrate, A10070, (Invitrogen, CA) doped into an artificial vesicle containing DMPG (Avanti Polar Lipids) as the excipient. Vesicles were prepared by combining 571 μL of 29 mM DMPG in a 1:1 mixture of MeOH and CHCl3 with 2000 μL of 1 mM A10070 in a 1:1 mixture of MeOH and CHCl3. The mixture was dried under nitrogen in multiple vials then resuspended in 20 mL total volume of 50 mM HEPES pH 8.0 buffer containing 50 mM NaCl and 0.2 mM EDTA. The sample was allowed to sit at room temperature for 15 min and then was sonicated 3×4 mins on ice with a Branson Sonicator using duty cycle 1. This preparation provides vesicles with a mole fraction of 0.11 for the FRET substrate.The enzymatic assay was measured using 384-well white Optiplates. Each well contained 20 μL of assay buffer (50 mM HEPES pH 8.0, 50 mM NaCl and 1 mM CaCl2) and 0.25 μL of a DMSO solution containing a compound of interest. EL or HL (10 μL) was added and allowed to incubate with the compound for 30 min at 37° C. The source of EL was conditioned media obtained from HT-1080 cells that were transformed using RAGE technology (Athersys) to overexpress endogenous EL, and HL was partially purified from conditioned media obtained from COS cells overexpressing HL. The reaction was started by the addition of 10 μL of a 1:10 dilution of vesicles. The final total reaction volume was […]. The reaction rates were measured on a Gemini plate reader with an excitation wavelength of 490 nm and an emission wavelength of 530 nm. Readings were taken over a period of 60 minutes, and the slope between 300 and 900 secs of the readout was used to calculate the rate of the reaction.

Row | SMILES | IC50
1 | O=C(CNC(=O)C(c1nc2ccc(-c3cccnc3F)cc2s1)S(=O)(=O)c1ccccc1)NC1CC1 (configuration not stated) | 102 nM
2 | COCCS(=O)(=O)C(C(=O)NCC(=O)NC1CC1)c1nc2cc(-c3ccc(OC(C)C)nc3)ccc2s1 (configuration not stated) | 11 nM
3 | Cn1nccc1-c1cc2sc(C(C(=O)NCC(=O)NC3CC3)S(C)(=O)=O)nc2cc1F (configuration not stated) | 26 nM
4 | COCCS(=O)(=O)C(C(=O)NCC(=O)NC1CC1)c1nc2ccc(-c3ccc(N4CCCC4)nc3)cc2s1 (configuration not stated) | 118 nM
5 | COCCS(=O)(=O)C(C(=O)NCC(=O)NC1CC1)c1nc2cc(F)c(-c3ccc4c(c3)CCN4)cc2s1 (configuration not stated) | 3 nM
6 | COCCS(=O)(=O)C(C(=O)NCC(=O)NC1CC1)c1nc2c(F)cc(-c3cccnc3F)cc2s1 (configuration not stated) | 106 nM
7 | C[C@H]1CN(C(=O)c2ccc(-c3ccc4nc(C(C(=O)NCC(=O)NC5CC5)S(C)(=O)=O)sc4c3)cc2)CCO1 (some centres not stated) | 31 nM
8 | COCCS(=O)(=O)C(C(=O)NCC(=O)NC1CC1)c1nc2ccc(-c3ccc(C(N)=O)c(Cl)c3)cc2s1 (configuration not stated) | 33 nM
9 | CS(=O)(=O)C(C(=O)NCC(=O)NC1CC1)c1nc2cc(-c3ccccc3)c(F)cc2s1 (configuration not stated) | 4 nM
10 | COCCS(=O)(=O)C(C(=O)NCC(=O)NC1CC1)c1nc2cc(-c3ccc(C)nc3)ccc2s1 (configuration not stated) | 34 nM
11 | COCCS(=O)(=O)C(C(=O)NCC(=O)NC1CC1)c1nc2ccc(-c3cccnc3C(F)(F)F)cc2s1 (configuration not stated) | 37 nM
12 | O=C(CNC(=O)C(c1nc2ccc(-c3ccc(F)nc3)cc2s1)S(=O)(=O)C1CCOCC1)NC1CC1 (configuration not stated) | 47 nM

Other lines, results leading:

Row | IC50 | SMILES
13 | 6 nM | CS(=O)(=O)C(C(=O)NCC(=O)NC1CC1)c1nc2cc(F)c(-c3ccc(=O)n(-c4ccccc4)c3)cc2s1 (configuration not stated)
14 | 9 nM | CC(=O)Nc1ccc(-c2cc3sc(C(C(=O)NCC(=O)NC4CC4)S(C)(=O)=O)nc3cc2F)cc1 (configuration not stated)
15 | 58 nM | O=C(CNC(=O)C(c1nc2cc(F)c(-c3ccc(F)nc3)cc2s1)S(=O)(=O)c1ccccc1F)NC1CC1 (configuration not stated)
16 | 7 nM | CS(=O)(=O)C(C(=O)NCC(=O)NC1CC1)c1nc2cc(F)c(-c3ccc4c(c3)CCCN4C(=O)Cc3c(F)cccc3F)cc2s1 (configuration not stated)
17 | 1 nM | CS(=O)(=O)C(C(=O)NCC(=O)NC1CC1)c1nc2cc(F)c(-c3ccc(C(=O)NCCc4ccccc4)cc3)cc2s1 (configuration not stated)
